Results as given in ChEMBL document CHEMBL4823287, “Design and synthesis of novel 5-alkynyl pyrimidine nucleosides derivatives: Influence of C-6-substituent on antituberculosis activity” (2021).
Values after ≈ are worked out from the molar mass of the structure shown.

Legend:
Assay type in all cases: functional
[1] = tested on: Mycobacterium tuberculosis; experiment: Antimycobacterial activity against Mycobacterium tuberculosis H37Ra assessed as inhibition of bacterial growth at 1 to 5 ug/ml measured by microplate alamar blue assay; conditions: dose 1-5 µg/ml; at 1 to 5 µg/mL
[2] = tested on: Mycobacterium tuberculosis; experiment: Antimycobacterial activity against Mycobacterium tuberculosis H37Ra assessed as inhibition of bacterial growth at 25 ug/ml measured by microplate alamar blue assay
[3] = tested on: Mycobacterium tuberculosis; experiment: Antimycobacterial activity against Mycobacterium tuberculosis H37Ra assessed as inhibition of bacterial growth measured by microplate alamar blue assay
[4] = tested on: Mycobacterium tuberculosis; experiment: Antimycobacterial activity against Mycobacterium tuberculosis H37Ra assessed as inhibition of bacterial growth at 50 ug/ml measured by microplate alamar blue assay
[5] = tested on: Mycobacterium tuberculosis; experiment: Antimycobacterial activity against Mycobacterium tuberculosis H37Ra assessed as inhibition of bacterial growth at 1 ug/ml measured by microplate alamar blue assay
[6] = tested on: Mycobacterium tuberculosis; experiment: Antimycobacterial activity against Mycobacterium tuberculosis H37Ra assessed as inhibition of bacterial growth at 100 ug/ml measured by microplate alamar blue assay
[7] = tested on: Mycobacterium tuberculosis; experiment: Antimycobacterial activity against Mycobacterium tuberculosis H37Ra assessed as inhibition of bacterial growth at 10 ug/ml measured by microplate alamar blue assay
[8] = tested on: Mycobacterium tuberculosis; experiment: Antimycobacterial activity against Mycobacterium tuberculosis H37Ra assessed as inhibition of bacterial growth at 5 ug/ml measured by microplate alamar blue assay

Row | SMILES | inhibition (percent inhibition of bacterial growth) [1] [%] | inhibition at 25 µg/mL [2] [%] | MIC50 [3] [µg/mL] | inhibition at 50 µg/mL [4] [%] | inhibition at 1 µg/mL [5] [%] | inhibition at 100 µg/mL [6] [%] | inhibition at 10 µg/mL [7] [%] | inhibition at 5 µg/mL [8] [%]
1 | CCCCC#Cc1c(C)n([C@@H]2O[C@H](CO)[C@@H](O)[C@H]2O)c(=O)[nH]c1=O | 10 | 60 | 17.7 (≈ 52.3 µM) | 100 | – | – | – | –
2 | Cc1c(C#CC(O)c2ccccc2)c(=O)[nH]c(=O)n1[C@@H]1O[C@H](CO)[C@@H](O)[C@H]1O (stereo partly specified) | – | – | 0.6 (≈ 1.54 µM) | – | 100 | – | – | –
3 | CC#Cc1c(C)n([C@@H]2O[C@H](CO)[C@@H](O)[C@H]2O)c(=O)[nH]c1=O | – | – | 50 (≈ 169 µM) | 50 | – | 90 | 10 | –
4 | CCCCCCC#Cc1c(C)n([C@@H]2O[C@H](CO)[C@@H](O)[C@H]2O)c(=O)[nH]c1=O | – | – | < 50 | 70 | – | 90 | – | –
5 | Cc1c(C#CC2CC2)c(=O)[nH]c(=O)n1[C@@H]1O[C@H](CO)[C@@H](O)[C@H]1O | 50 | – | 2.3 (≈ 7.14 µM) | – | – | 90 | 80 | –
6 | Cc1c(C#C[Si](C)(C)C)c(=O)[nH]c(=O)n1[C@@H]1O[C@H](CO)[C@@H](O)[C@H]1O | – | – | – | – | – | 0 | – | –
7 | CCCC#Cc1c(C)n([C@@H]2O[C@H](CO)[C@@H](O)[C@H]2O)c(=O)[nH]c1=O | – | – | < 50 | 60 | – | 90 | 0 | –
8 | Cc1c(C#CC2CCCCC2)c(=O)[nH]c(=O)n1[C@@H]1O[C@H](CO)[C@@H](O)[C@H]1O | 10 | 60 | 14.1 (≈ 38.7 µM) | 100 | – | – | – | –
9 | Cc1c(C#Cc2ccccc2)c(=O)[nH]c(=O)n1[C@@H]1O[C@H](CO)[C@@H](O)[C@H]1O | 50 | – | 2.6 (≈ 7.26 µM) | 75 | – | 90 | 75 | –
10 | CCC#Cc1c(C)n([C@@H]2O[C@H](CO)[C@@H](O)[C@H]2O)c(=O)[nH]c1=O | – | – | 50 (≈ 161 µM) | 50 | – | 90 | 10 | –
11 | Cc1c(C#CCC(C)C)c(=O)[nH]c(=O)n1[C@@H]1O[C@H](CO)[C@@H](O)[C@H]1O | 10 | 60 | 18.1 (≈ 53.5 µM) | 100 | – | – | – | –
12 | N[C@@H]1CONC1=O [CYCLOSERINE] | – | – | 5.2 (≈ 50.9 µM) | – | – | – | 67 | 50
13 | NNC(=O)c1ccncc1 [ISONIAZID] | – | – | 0.8 (≈ 5.83 µM) | – | 100 | – | – | –
14 | CO[C@H]1/C=C/O[C@@]2(C)Oc3c(C)c(O)c4c(O)c(c(/C=N/N5CCN(C)CC5)c(O)c4c3C2=O)NC(=O)/C(C)=C\C=C\[C@H](C)[C@H](O)[C@@H](C)[C@@H](O)[C@@H](C)[C@H](OC(C)=O)[C@@H]1C [RIFAMPIN] | – | – | 0.7 (≈ 0.851 µM) | – | 100 | – | – | –
